From patent US20240392315A1, “COMPOSITION FOR CELL ADDITION” (priority 2021, published 2024)
Where two headings read alike, the source gives them in different places.

Key:
HEK293 cells [1] = type: cell-based, human
HEK293 cells [2] = conditions: ethanol amounts where intracellular AAV2 genome titer is higher than control
AAV2-producing cells = test system: AAV2-producing cells
Method: In order to identify metabolic changes that occurred in AAV2-producing cells when ethanol was added and important factors, intracellular proteins were extracted from cells with and without addition of ethanol during AAV2 production, the extracted proteins were analyzed by liquid chromatography-mass spectrometry (LC-MS) and proteins whose expression increased or decreased during AAV2 production due to the presence or absence of ethanol addition were analyzed.

HEK293 cells [3] = conditions: for culture supernatant genome titer / cell lysate genome titer / cell lysate genome integrity / culture supernatant genome integrity: ethanol 0.28 v/v %; for culture supernatant genome titer: 3 days after transfection
Excerpt: In the same manner as in Example 1, “1.

HEK293 cells [4] = conditions: for Full rate / AAV2 particle number: ethanol 0.56 v/v %, AAV2 produced in cells
Method: AAV2 particles (whole particles with and without AAV2 genome) extracted from the culture supernatant and producing cells were measured using a commercially available AAV2 ELISA kit (PROGENE, AAV2 Titration ELISA) and according to the instructions of the kit.
The proportion (Full rate) of AAV2 particles containing the integrated AAV2 genome was calculated from the total number of AAV2 particles quantified by the ELISA method and the quantitative value of particles containing the integrated AAV2 genome obtained from ddPCR.

[5] = 48 and 72 hours after transfection of plasmid DNA for AAV2 production
[6] = 48 hr, protein vs control (no ethanol addition)
[7] = 72 hr, protein vs control (no ethanol addition)
[8] = Downregulated pathway when ethanol was added, time after transfection
[9] = Upregulated pathway when ethanol was added, time after transfection

Method for Hela cells: AAV2 was extracted from the culture supernatant and producing cells and an AAV2 solution was prepared. Three days after adding the AAV2 solution to cultured Hela cells, the number of cells expressing the GFP protein derived from the added AAV2 was measured, and the number of cells infected by the AAV2 solution per mL was calculated.

CC(C)O [Isopropanol, isopropanol]
genome titer (HEK293 cells [1]; test (4), additive 0.61 v/v %, AAV2 in cells, control 2.40E+07): 2.26E+07 vg/μL | genome integrity (HEK293 cells [1]; test (4), additive 0.61 v/v %, AAV2 in cells, control 53.4): 58.5%

CCO [ethanol]
cell proliferation rate during AAV2 production (HEK293 cells [2]): equivalent to or higher than in the control condition | viability of the producing cells on day 3 after transfection (HEK293 cells [2]; FIG. 1C): maintained higher than in the control condition | pathway change, CLEAR Signaling Pathway (AAV2-producing cells; [5]): activated | pathway change, Estrogen Receptor Signaling (AAV2-producing cells; [5]): activated | pathway change, Interferon Signaling (AAV2-producing cells; [5]): suppressed | pathway change, NAD Signaling (AAV2-producing cells; [5]): activated | pathway change, Necroptosis Signaling Pathway (AAV2-producing cells; [5]): suppressed | pathway change, Protein Kinase A Signaling (AAV2-producing cells; [5]): activated | pathway change, Role of Hypercytokinemia/hyperchemokinemia in the Pathogenesis of influenza (AAV2-producing cells; [5]): suppressed | pathway change, Superpathway of Cholesterol Biosynthesis (AAV2-producing cells; [5]): activated | Fold Change CAPN5 (AAV2-producing cells; [6]): 2.10 | Fold Change DUSP9 (AAV2-producing cells; [6]): −1.30 | Fold Change GLUL (AAV2-producing cells; [6]): −1.80 | Fold Change GNG2 (AAV2-producing cells; [6]): 1.75 | Fold Change GNPTG (AAV2-producing cells; [6]): −1.59 | Fold Change H1-4 (AAV2-producing cells; [6]): −1.33 | Fold Change HPS5 (AAV2-producing cells; [6]): 100 | Fold Change IFI35 (AAV2-producing cells; [6]): 100 | Fold Change IFIT1 (AAV2-producing cells; [6]): −1.60 | Fold Change IFIT3 (AAV2-producing cells; [6]): −1.73 | Fold Change IFITM3 (AAV2-producing cells; [6]): 1.19 | Fold Change ISG15 (AAV2-producing cells; [6]): −1.77 | Fold Change MED14 (AAV2-producing cells; [6]): 1.16 | Fold Change MERTK (AAV2-producing cells; [6]): 1.44 | Fold Change MITF (AAV2-producing cells; [6]): −1.33 | Fold Change NAGLU (AAV2-producing cells; [6]): 100 | Fold Change NGFR (AAV2-producing cells; [6]): 2.60 | Fold Change NPRL3 (AAV2-producing cells; [6]): 100 | Fold Change PKN (paxillin) (AAV2-producing cells; [6]): −1.31 | Fold Change PRKAG2 (AAV2-producing cells; [6]): 100 | Fold Change SMAD3 (AAV2-producing cells; [6]): 100 | Fold Change TIMM10 (AAV2-producing cells; [6]): −8.00 | Fold Change TNIP1 (AAV2-producing cells; [6]): −100 | Fold Change TRPM1 (AAV2-producing cells; [6]): −2.58 | Fold Change BAX (AAV2-producing cells; [7]): 1.11 | Fold Change CAPN5 (AAV2-producing cells; [7]): 1.51 | Fold Change CCL5 (AAV2-producing cells; [7]): −1.79 | Fold Change DHCR24 (AAV2-producing cells; [7]): −1.03 | Fold Change DXO (AAV2-producing cells; [7]): 100 | Fold Change FADD (AAV2-producing cells; [7]): 1.54 | Fold Change GLUL (AAV2-producing cells; [7]): −1.91 | Fold Change GNG2 (AAV2-producing cells; [7]): 1.60 | Fold Change HADHA (AAV2-producing cells; [7]): 1.23 | Fold Change HADHB (AAV2-producing cells; [7]): 1.29 | Fold Change HMGCS1 (AAV2-producing cells; [7]): −1.21 | Fold Change HPS5 (AAV2-producing cells; [7]): 100 | Fold Change IFI35 (AAV2-producing cells; [7]): −100 | Fold Change IFIT1 (AAV2-producing cells; [7]): −1.53 | Fold Change IFIT3 (AAV2-producing cells; [7]): −1.51 | Fold Change INS (AAV2-producing cells; [7]): 1.58 | Fold Change IRE3 (interferon regulatory factor 3) (AAV2-producing cells; [7]): 1.09 | Fold Change ISG15 (AAV2-producing cells; [7]): −1.52 | Fold Change MED6 (AAV2-producing cells; [7]): −100 | Fold Change MED14 (AAV2-producing cells; [7]): 1.07 | Fold Change MITF (AAV2-producing cells; [7]): −1.28 | Fold Change MSMG1 (methylsterol monooxygenase 1) (AAV2-producing cells; [7]): −1.07 | Fold Change MT-CYB (AAV2-producing cells; [7]): 3.49 | Fold Change MT-ND4 (AAV2-producing cells; [7]): −1.65 | Fold Change NAGLU (AAV2-producing cells; [7]): −1.74 | Fold Change NFKB1 (AAV2-producing cells; [7]): 1.07 | Fold Change NGFR (AAV2-producing cells; [7]): 2.35 | Fold Change NTN1 (AAV2-producing cells; [7]): −1.60 | Fold Change POLRZI (RNA polymerase II subunit I) (AAV2-producing cells; [7]): −1.42 | Fold Change PPP1R140 (protein phosphatase 1 regulatory inhibitor subunit 14C) (AAV2-producing cells; [7]): −1.29 | Fold Change PRKAG2 (AAV2-producing cells; [7]): 100 | Fold Change PTPRK (AAV2-producing cells; [7]): −1.31 | Fold Change RAF1 (AAV2-producing cells; [7]): −1.29 | Fold Change RXRA (AAV2-producing cells; [7]): −1.40 | Fold Change SC5D (AAV2-producing cells; [7]): 100 | Fold Change SLC29A1 (AAV2-producing cells; [7]): −1.28 | Fold Change TIMM10 (AAV2-producing cells; [7]): 1.51 | Fold Change TNIP1 (AAV2-producing cells; [7]): −100 | Fold Change TOMM6 (AAV2-producing cells; [7]): 1.63 | Fold Change TOMM7 (AAV2-producing cells; [7]): −1.40 | Fold Change TP53 (AAV2-producing cells; [7]): −1.18 | Regulated timing, Interferon Signaling (AAV2-producing cells; [8]): 48 hr, 72 hr | Regulated timing, Necroptosis Signaling Pathway (AAV2-producing cells; [8]): 48 hr, 72 hr | Regulated timing, Role of Hypercytokinemia/hyperchemokinemia in the Pathogenesis of influenza (AAV2-producing cells; [8]): 72 h | Regulated timing, Activation of IRF by Cytosolic Pattern recognition receptors (AAV2-producing cells; Pathway where change was identified when ethanol was added, time after transfection): 72 h | Regulated timing, CLEAR Signaling Pathway (AAV2-producing cells; [9]): 48 hr, 72 hr | Regulated timing, Estrogen Receptor Signaling (AAV2-producing cells; [9]): 72 h | Regulated timing, NAD Signaling (AAV2-producing cells; [9]): 72 h | Regulated timing, Protein Kinase A Signaling (AAV2-producing cells; [9]): 48 hr, 72 hr | Regulated timing, Superpathway of Cholesterol Biosynthesis (AAV2-producing cells; [9]): 72 h | infection titer (infecting cells and expressing GFP per volume of lysate) (Hela cells; AAV2 vector produced with ethanol addition vs control, Table 4): high | infection titer (Hela cells; ethanol 0.56 v/v %, intracellular AAV2 extract, same amount of genome titer, control 1.36E+08): 1.63E+08 ifu/mL | genome titer of AAV2 both in cells and in the culture supernatant (HEK293 cells [1]; ethanol 0.09 to 2.2 V/V %, particularly at not exceeding 1.1 v/v %, vs no ethanol, FIG. 1A, 1B): improved | genome integrity (HEK293 cells [1]; ethanol 0.56 v/v %, intracellular AAV2 extract, control 45.6): 54.7% | genome titer (HEK293 cells [1]; ethanol 0.56 v/v %, intracellular AAV2 extract, ddPCR primer for ITR region, control 4.40E+07): 6.59E+07 vg/μL | percentage of integrated genome in AAV2 in the producing cells (HEK293 cells [1]; ethanol added within the range of about 2v/v %, FIG. 2A): clearly higher | proportion of the integrated genome in AAV2 (HEK293 cells [1]; ethanol addition during AAV2 production, FIG. 2A, 2B): improved | genome titer (HEK293 cells [1]; test (1), ethanol 0.56 v/v %, AAV2 produced in cells, control 2.26E+07): 5.05E+07 vg/μL | genome titer (HEK293 cells [1]; test (2), ethanol 0.56 v/v %, AAV2 produced in cells, control 3.23E+07): 3.81E+07 vg/μL | culture supernatant genome titer (HEK293 cells [3]; AAV1, control 3.34E+06): 5.09E+06 vg/μL | cell lysate genome titer (HEK293 cells [3]; AAV1, control 2.67E+06): 4.67E+06 vg/μL | cell lysate genome integrity (HEK293 cells [3]; AAV1, control 43.3): 54.2% | culture supernatant genome integrity (HEK293 cells [3]; AAV1, control 49.3): 58.6% | culture supernatant genome titer (HEK293 cells [3]; AAV6, control 1.20E+05): 1.08E+05 vg/μL | cell lysate genome titer (HEK293 cells [3]; AAV6, control 1.60E+07): 2.05E+07 vg/μL | culture supernatant genome integrity (HEK293 cells [3]; AAV6, control 23.7): 28.6% | cell lysate genome integrity (HEK293 cells [3]; AAV6, control 51.8): 55.1% | amount of AAV1 produced (genome titer) and genome integrity, in culture supernatant and within cells (HEK293 cells [3]; when ethanol was added): improved | amount of AAV6 produced within cells (genome titer) (HEK293 cells [3]; when ethanol was added): improved | genome integrity of AAV6 in culture supernatant and within cells (HEK293 cells [3]; when ethanol was added): improved | rate of incorporation of AAV2-derived genome into the produced AAV2 capsid (HEK293 cells [4]; AAV2 produced with addition of ethanol vs control, Table 3): higher | Full rate (HEK293 cells [4]; test (1), control 2.30): 3.58% | AAV2 particle number (HEK293 cells [4]; test (1), control 9.86E+11): 1.41E+12 particles/mL | AAV2 particle number (HEK293 cells [4]; test (2), control 1.04E+12): 1.13E+12 particles/mL | Full rate (HEK293 cells [4]; test (2), control 3.12): 3.38%
